# Reference: patent US11220534B2, “Treatment of neurological diseases” (Lancaster University Business Enterprises Limited, priority 2016, dated 2022)
# Where no end group is shown, it is not given here. [ ]: non-standard residue; d: D form. Aib = CC(C)(N)C(=O)O
# Assays:
# APP/PS1 transgenic mice = test: Immunohistochemical measurement of beta-amyloid plaque load in the cortex of APP/PS1 transgenic mice; type: in vivo
# Excerpt: Animal models have been developed to test novel drugs. A standard model for Alzheimer's disease is transgenic mice that express human mutated genes for amyloid production that are known to induce Alzheimer's disease in humans. These APP/PS1 transgenic mice recapitulate some of the symptoms of Alzheimer's disease such as the aggregation of amyloid in the brain, memory loss and the loss of synapses (Radde et al., 2006).
# The APP/PS1 mice express human Swedish mutated APP and human mutated presenilin-1 which induce Alzheimer's Disease in humans.
# The dose of peptide tested was 10 nmol/kg body weight. The peptides were administered by a once-daily intraperitoneal injection for 8 weeks. Saline injections were administered as a control. Six animals per group were injected with a peptide or a saline control.
# Animals (6 per group) were perfused transcardially with 30 ml of ice-cold PBS and 30 ml of ice-cold 4% paraformaldehyde to postfix the brain. The brains were removed and placed in fresh 30% sucrose solution in PBS to cryoprotect tissue and cut at a thickness of 40 μm on a cryostat. Sections were chosen according to stereological rules, with the first section taken at random and every 5th section afterwards. Between 7 and 13 sections were analysed per brain.
# Immunostaining techniques were used to assess the neuronal plaque load (anti beta-amyloid rabbit polyclonal antibody (1:200, rabbit polyclonal-Invitrogen 71-5800) and of synaptophysin (polyclonal rabbit anti-synaptophysin primary antibody, 1:2000, Abcam, Cambridge, UK) to measure the amount of synapses in the cortex. Brain samples were first exposed to 99% formic acid for 7 minutes and then washed 3 times for 10 minutes in TBS. Pre-treatment with 99% formic acid is known to drastically increase the detection of beta-Amyloid in formalin-fixed brain samples. Then samples were incubated in 0.3% H2O2 (Sigma Aldrich; Cat.-No.: 516813) in TBS for 30 minutes on the shaker to deplete endogenous peroxides activity, and were 3 times washed in TBS for 10 minutes afterwards.
# To increase permeability of membranes in the brain tissue, samples were exposed to 0.3% Triton X-100 (Sigma Aldrich; Cat.-No.: 516813) in TBS for 10 minutes on the shaker. Unspecific proteinophilic binding in the tissue was saturated by incubating the samples with 5% goat serum (Gibco; Cat.-No.: 16210-064) in TBS for 30 minutes on the shaker.
# A primary antibody against beta-Amyloid or synaptophysin was added and incubated overnight on the shaker at 4° C. The antibody was polyclonal and raised against a synthetic beta-Amyloid 1-43 peptide in rabbit. The primary antibody was used in a final dilution of 1 to 250 in TBS containing 2% goat serum and […]. […]
# APP/PS1 mice = test: Classical Morris water maze test; type: in vivo
# Excerpt: Materials and methods in Example 2 are the same as Example 1 except when stated. Reagents used in Example 2 only include antibodies to p-PI3Kp85, PI3Kp85, p-Akt (ser473), Akt, p-GSK3β (Y216), and GSK3β from Abcam, Inc. Cambridge, UK. The antibody to p-tau (AT8) from Thermo Scientific USA. Mouse Anti-β-actin, Anti-Rabbit IgG, Anti-mouse IgG, CY3-Anti-mouse IgG, RIPA Lysate, BCA Protein Assay Kit, DAPI staining solution and Anti-fluorescence decay agent from Boster (Wuhan, China).
# Classical Morris water maze (MWM) test was used to investigate spatial reference memory of mouse. The water maze mainly included a stainless steel pool and a platform in the pool for escape. There were several landmarks fixed to the walls of the water maze. The pool was filled with tap water at 22±2° C. The first phase was acquisition trial phase which was consisted of five training days (days 1-5) and four trials each day. The pool (diameter, 120 cm; high, 50 cm) was divided into four quadrants and the escape platform (diameter, 12 cm) hidden 1 cm beneath the water surface was placed in the center of the first quadrant. […] The escape latencies were recorded by Ethovision 3.0 software system (Noldus Information Technology, the Netherlands). […] The percentage of swimming time in target quadrant (the first quadrant) and frequency of platform crossing were recorded. […] Swimming time to target was recorded.
substance,measurement,setting,value
"YXEGTFTSDYSIYLDKQAAXEFVNWLLAGGPSSGAPPPSKRRQRRKKRGY-NH2 (Y[Aib]EGTFTSDYSIYLDKQAA[Aib]EFVNWLLAGGPSSGAPPPSKRRQRRKKRGY-NH2) [DA5, No. 12; X=aminoisobutyric acid]",beta-amyloid plaque load in the cortex (% area positive for beta amyloid in cross sections of the brain cortex),"APP/PS1 transgenic mice; 10 nmol/kg body weight, once-daily intraperitoneal injection for 8 weeks, FIG. 1, N=6 per group",reduces beta-amyloid plaque load
same,beta-amyloid plaque load compared with the single GIP or GLP-1 analogues,"APP/PS1 transgenic mice; 10 nmol/kg i.p. once daily for 8 weeks, FIG. 1",superior to the single GIP or GLP-1 analogues
same,"probe test, recall of the escape route (classical Morris water maze)","APP/PS1 mice; APP/PS1 mice vs APP/PS1-saline, FIG. 7c, 7d",recalled the escape route to a greater extent than APP/PS1-saline mice
same,disorder in spatial memory (classical Morris water maze),"APP/PS1 mice; APP/PS1 mice, FIG. 7, N=8-14 per group",ameliorated
